The compounds below were run against T1, human GCS (glucosylceramide synthase) (Homo sapiens, UniProt Q16739) (assay: Glucosylceramide Synthase (GCS) Assay). Conditions: test compound 10 μM; microsome fraction of Expi293F cells expressing human GCS; 1.7 μM UDP-glucose, 3 μM C8 ceramide; room temperature 60 min; C8 glucosylceramide by Rapidfire MS/MS; read-out: GCS enzyme inhibitory rate at 10 μM (%).
T1 construct: made in house; host or cells: Expi293F cells (transient expression; microsome fraction)
T1 sequence (Q16739 1-394): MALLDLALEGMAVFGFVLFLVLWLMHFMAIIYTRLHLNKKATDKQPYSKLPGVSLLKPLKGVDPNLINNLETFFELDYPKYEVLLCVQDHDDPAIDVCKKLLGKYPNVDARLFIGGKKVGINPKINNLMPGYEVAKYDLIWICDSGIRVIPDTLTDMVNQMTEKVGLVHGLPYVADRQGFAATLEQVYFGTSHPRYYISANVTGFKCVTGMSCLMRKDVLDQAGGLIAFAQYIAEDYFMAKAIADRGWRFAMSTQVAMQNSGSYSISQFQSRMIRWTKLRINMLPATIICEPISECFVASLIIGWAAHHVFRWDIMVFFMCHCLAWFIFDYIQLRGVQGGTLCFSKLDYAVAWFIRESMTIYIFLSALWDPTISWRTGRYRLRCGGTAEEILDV
Format: biochemical
Method in brief: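 Enzyme source was a microsome fraction from Expi293F cells transiently expressing human GCS. Reaction ran 60 min at room temperature in 20 mM Tris pH 7.5 with 1.7 μM UDP-glucose (Km) and 3 μM liposomal C8 ceramide, compound at 10 μM final. C8 glucosylceramide quantified by RapidFire MS/MS; inhibition scaled between enzyme-free and DMSO controls.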

| Structure (SMILES) | inhibition at 10 µM [%] |
| --- | --- |
| CC(C)(O)c1cc(C(=O)Nc2ccc(OC(F)F)cc2)c(=O)n(-c2ccccc2OCC(F)(F)F)n1 [Example 200, N-[4-(difluoromethoxy)phenyl]-6-(2-hydroxypropan-2-yl)-3-oxo-2-[2-(2,2,2-trifluoroethoxy)phenyl]-2,3-dihydropyridazine-4-carboxamide] | 99 |
| CC(C)(O)c1cc(C(=O)Nc2ccc(C(C)(C)C#N)cc2)c(=O)n(-c2ccccc2OCC(F)(F)F)n1 [Example 201, N-[4-(2-cyanopropan-2-yl)phenyl]-6-(2-hydroxypropan-2-yl)-3-oxo-2-[2-(2,2,2-trifluoroethoxy)phenyl]-2,3-dihydropyridazine-4-carboxamide] | 100 |
| CC(C)(O)c1ccc(NC(=O)c2cc(C(C)(C)O)nn(-c3ccccc3OCC(F)(F)F)c2=O)cc1 [Example 202, 6-(2-hydroxypropan-2-yl)-N-[4-(2-hydroxypropan-2-yl)phenyl]-3-oxo-2-[2-(2,2,2-trifluoroethoxy)phenyl]-2,3-dihydropyridazine-4-carboxamide] | 99 |
| C=C(C)c1ccc(NC(=O)c2cc(C(C)(C)O)nn(-c3ccccc3OCC(F)(F)F)c2=O)cc1 [Example 203, 6-(2-hydroxypropan-2-yl)-3-oxo-N-[4-(prop-1-en-2-yl)phenyl]-2-[2-(2,2,2-trifluoroethoxy)phenyl]-2,3-dihydropyridazine-4-carboxamide] | 99 |

— patent US20220289679A1, “HETEROCYCLIC COMPOUND” (Takeda Pharmaceutical Company Limited, priority 2019, published 2022)
